Experimental data published in patent publication US20190265231A1, “GPCR (GPR113) INVOLVED IN FAT, FATTY ACID AND/OR LIPID-ASSOCIATED TASTE AND USE IN ASSAYS FOR IDENTIFYING TASTE MODULATORY” (SENOMYX, INC., priority 2015, published 2019).

Columns and labels:
GPR113 KO mice = test: brief-access licking paradigms in WT and GPR113 KO mice; assay type: in vivo; details: for licking response of GPR113 KO mice compared with WT: GPR113 KO versus WT; for licking in response to increasing concentrations: WT mice
Procedure: FIG. 10 contains mean (±SE) number of licks taken to a range of soybean oil concentrations and the vehicle emplex measured during 5-second trials in wild-type (WT; closed circles) and GPR113 knockout (KO; open circles) mice.
Several groups of mice underwent behavioral testing. […] We also tested groups of mice in brief-access licking paradigms. […] Mineral oil was tested as a control for viscosity.

GLX mice = test: brief access licking after glossopharyngeal nerve transection (GLX); assay type: in vivo; details: C57Bl/6 mice, GLX versus SHAM
Procedure: C57Bl/6 mice (Harlan) were trained to lick in the brief access licking. Following training mice were balanced for body weight and average number of licks per trial to water during training and assigned to a surgery group. Mice were allowed to recover for at least two weeks following surgery. They were given two days of licking to water (shutter training), food was taken away overnight and they were tested for their licking responses to soybean oil in […] over 2 days of testing. The next week they were tested in the same manner to sucrose. Following the last day of testing, mice were euthanized and their tongues were taken for histological analysis. CV papilla were cross sectioned and stained with hematoxylin/eosin. An observer blind to the surgical condition counted taste buds.

SMILES | licking response of GPR113 KO mice compared with WT (GPR113 KO mice) | concentration-dependent licking in GLX mice relative to SHAM operated controls (GLX mice) | licking in response to increasing concentrations (GPR113 KO mice)
OC[C@H]1O[C@@](CO)(O[C@H]2O[C@H](CO)[C@@H](O)[C@H](O)[C@H]2O)[C@@H](O)[C@@H]1O [sucrose] | responded similarly | identical increases in licking | 
CCCCC/C=C\C/C=C\CCCCCCCC(=O)O [linoleic acid] | absent or significantly diminished |  | increased licking
C=C[C@H]1C[N@@]2CC[C@H]1C[C@H]2[C@H](O)c1ccnc2ccc(OC)cc12 [quinine] | responded similarly |  | 
CCCCCCCC/C=C\CCCCCCCC(=O)O [oleic acid] | absent or significantly diminished |  | increased licking
[Cl-].[Na+] [NaCl] | responded similarly |  | 
O=C(O)CC(O)(CC(=O)O)C(=O)O [citric acid] | responded similarly |  | 
[Cl-].[K+] [KCl] | responded similarly |  | 
